Measured values taken from paper PMC9745799, “Polymyxin Stereochemistry and Its Role in Antibacterial Activity and Outer Membrane Disruption” (ACS Infectious Diseases, 2022).
Values joined by “and” are separate entries in the source; they are usually repeats but may differ in a detail not shown here. Equal entries are not always repeated. Positions of bridges follow the written chain, without caps; N, C: chain ends. Non-standard residues stand in square brackets, D forms with d. Residues, ends and D or L forms follow the SMILES beside them. *: point of attachment. dDab = NCC[C@@H](N)C(=O)O; Heptanoyl = CCCCCCC(=O)*

How the values were obtained:
[1] = tested on: A. baumannii ATCC 19606; type: cell-based; settings: A. baumannii ATCC 19606
Method: (§1) MICs of compounds were determined following CLSI guidelines using the microbroth dilution method in polypropylene plates. Selected Gram-negative bacterial strains (see Table S2 for strain sources) were taken from glycerol stocks and grown overnight on blood agar. Individual colonies were selected and grown in Tryptic Soy Broth (TSB) to an OD600 of 0.5. Compounds were diluted in Mueller Hinton Broth (MHB) supplemented with Mg^2+ and Ca^2+ at final concentrations of 12 and 20 mg/L, respectively (CAMHB). 50 μL was used for each well, and compounds were assessed in triplicates. Bacterial culture was diluted in CAMHB to 10^6 CFU/mL, yielding 5 × 10^5 CFU/mL upon addition of 50 μL of culture to 50 μL of compound solution. Positive and negative (sterility) controls were present on each plate. Plates were sealed with a semipermeable membrane and incubated for 22 h (A. baumannii) or 18 h (other strains) under shaking at 37 °C.

[2] = tested on: K. pneumoniae ATCC 13883; type: cell-based; settings: K. pneumoniae ATCC 13883
Method: as §1

[3] = tested on: P. aeruginosa 2018-007; type: cell-based; settings: P. aeruginosa 2018-007; CLSI microbroth dilution, CAMHB, 18 h, 37 °C, triplicate
Method: as §1

[4] = tested on: P. aeruginosa ATCC 10145; type: cell-based; settings: P. aeruginosa ATCC 10145
Method: as §1

[5] = tested on: polymyxin-resistant (mcr-1 positive) E. coli; assay: microbe, parasite or virus in culture; type: cell-based; settings: E. coli mcr-1, checkerboard
Method: (§2) Selected Gram-negative bacterial strains were taken from glycerol stocks and grown overnight on blood agar. A single colony was inoculated in TSB broth at 37 °C until an optical density of 0.5 at 600 nm (OD600) was reached. The bacterial suspension was diluted in freshly prepared CAMHB to 10^6 CFU/mL. Compounds were diluted along the plate, using 25 μL of CAMHB for each dilution. Antibiotic concentrations were prepared separately in a multiwell reservoir, including a control without antibiotic. Of each antibiotic stock, 25 μL was added to three columns to obtain triplicates for every condition. To each 50 μL containing well was then added 50 μL of the 10^6 CFU/mL bacterial suspension, and the plates were sealed with breathable seals. After incubation for 18 h at 37 °C while shaking, the seals were removed and the density of the bacterial suspensions was measured at 600 nm (OD600) using a Tecan Spark plate reader. The OD600 values were transformed to a 2D gradient with the negative control as the minimum and the positive control as the maximum. The FICI was calculated using the following equation: [drawing 1] with MSCant and MSCcomp indicating the optimal synergistic concentration of antibiotic and compound and MICant and MICcomp, the corresponding MICs of the individual compounds. An FICI ≤ 0.5 indicates synergy.[48]

[6] = tested on: polymyxin-sensitive E. coli ATCC 25922; assay: microbe, parasite or virus in culture; type: cell-based; settings: E. coli ATCC 25922
Method: as §2

[7] = tested on: E. coli ATCC 25922 (smooth LPS); assay: NPN uptake assay (outer membrane disruption); type: cell-based; settings: NPN fluorescence after 1 h at RT, 5 mM HEPES pH 7.2 + 20 mM glucose, triplicates, result in words
Method: (§3) Bacteria were taken from glycerol stocks and grown in TSB overnight. Cultures were diluted either 50 or 100 times in Lysogeny Broth (LB) and grown at 37 °C to an OD600 of 0.5. Test compounds were prepared in HEPES buffer (5 mM, pH 7.2 + 20 mM glucose) and serially diluted (25 μL per well) on 1/2 the area of black 96-well plates with a transparent bottom. N-Phenyl-1-naphthylamine (NPN) was dissolved in acetone (0.5 mM) and diluted to 40 μM in HEPES buffer (5 mM, pH 7.2 + 20 mM glucose). 25 μL of the NPN solution was added to each well. The bacterial suspension was spin down (1000g, 10 min), and the remaining cell pellet was resuspended in half the original volume of HEPES buffer (5 mM, pH 7.2 + 20 mM glucose). 50 μL of bacterial suspension was added to each well. NPN fluorescence was measured after 1 h of incubation at RT with λex 355 ± 20 nm and λem 420 ± 20 nm. The measured fluorescence signal was corrected for NPN fluorescence in the absence of compounds (bacteria in buffer + NPN) and presented as relative fluorescence units (RFUs).

[8] = tested on: E. coli BW25113 (rough LPS); assay: NPN uptake assay (outer membrane disruption); type: cell-based; settings: NPN fluorescence after 1 h at RT, 5 mM HEPES pH 7.2 + 20 mM glucose, triplicates, result in words
Method: as §3

[9] = tested on: polymyxin-resistant, mcr-1 positive E. coli; assay: NPN uptake assay (outer membrane disruption); type: cell-based; settings: E. coli mcr-1 positive; NPN fluorescence after 1 h at RT, highest concentration tested 32 μg/mL, triplicates; result in words
Method: as §3

[10] = tested on: LPS from E. coli (O55:B5); assay: Isothermal titration calorimetry (ITC), LPS binding; settings: compound (1 mM) into LPS (20 µM), 20 mM HEPES pH 7, 37 °C, mean and SD of three experiments
Method: Stock solutions of LPS (10 mg/mL, 0.5 mM) were prepared in 20 mM HEPES at pH 7 by suspension, sonication, and temperature cycling between 4 and 60 °C and stored overnight prior to use. LPS from E. coli (O55:B5) was used. Lipopeptide solutions (1 mM in 20 mM HEPES, pH 7) were titrated into a suspension of LPS (0.020 mM) in the same buffer. Control titrations included the titration of peptide into buffer and buffer into the LPS suspension to determine the corresponding heat of dilution. All binding experiments were performed using a MicroCal PEAQ-ITC Automated microcalorimeter (Malvern Panalytical Ltd., Malvern, UK). The samples were equilibrated to 37 °C prior to measurement. The titrations were conducted at 37 °C under constant stirring at 750 rpm. Each experiment consisted of an initial injection of 0.3 μL followed by 25 separate injections of 1.5 μL into the sample cell of 200 μL. The time between each injection was 180 s, and the measurements were performed with the reference power set at 5 μcal s^–1 and the feedback mode set at “low”. For all calculations performed, an estimated molecular weight of 20 kDa for LPS was applied. The calorimetric data thus obtained were analyzed using MicroCal PEAQ-ITC Analysis Software Version 1.20 (Malvern Panalytical Ltd., Malvern, UK), where the integrated heat signal is corrected for the heat of dilution of the titrant.

[11] = CLSI microbroth dilution, CAMHB, 18 h, 37 °C, triplicate

SMILES: CCCCCCC(=O)N[C@H](CCN)C(=O)N[C@@H](C(=O)N[C@H](CCN)C(=O)N[C@@H]1CCNC(=O)[C@@H]([C@H](C)O)NC(=O)[C@@H](CCN)NC(=O)[C@@H](CCN)NC(=O)[C@@H](CC(C)C)NC(=O)[C@H](Cc2ccccc2)NC(=O)[C@@H](CCN)NC1=O)[C@H](C)O [ent-PmxB4] (Heptanoyl-[dDab][dT][dDab][dDab][dDab]F[dL][dDab][dDab][dT]; lactam 4-C)
- MIC in presence of PMBN ([1]; + PMBN (8 ug/mL)): > 128 µg/mL
- MIC in presence of SPR741 ([1]; + SPR741 (8 ug/mL)): > 128 µg/mL
- MIC ([1]; CLSI microbroth dilution, CAMHB, 22 h, 37 °C, triplicate): >128 µg/mL
- MIC in presence of PMBN ([2]; + PMBN (8 ug/mL)): > 128 µg/mL
- MIC in presence of SPR741 ([2]; + SPR741 (8 ug/mL)): > 128 µg/mL
- MIC [2, 11]: >128 µg/mL
- MIC [3]: >128 µg/mL
- MIC in presence of PMBN ([4]; + PMBN (8 ug/mL)): > 128 µg/mL
- MIC in presence of SPR741 ([4]; + SPR741 (8 ug/mL)): > 128 µg/mL
- MIC [4, 11]: >128 µg/mL
- MIC alone ([5]; substance alone): 128 µg/mL
- FICI ([5]; combination with rifampicin, CAMHB, 18 h, 37 °C, OD600, FICI ≤ 0.5 indicates synergy): 0.19 and 0.188
- MIC alone ([6]; checkerboard, substance alone): 128 µg/mL
- MIC in combination ([6]; compound in combination with rifampicin, optimal synergistic concentration): 8 µg/mL
- OM disruption (NPN uptake) [7]: moderate OM disruption
- OM disruption (NPN uptake) [8]: moderate OM disruption
- OM disruption (NPN uptake) [9]: full NPN uptake albeit at higher concentrations
- ΔΔH, maximum enthalpy observed after subtraction of dilution control [10]: -3.485 kcal/mol
